Laboratory results from paper PMC6851342 (The Journal of Biological Chemistry, 2019).

Biological target: T1, WT EhV1 (A3B3DF complex, V1-ATPase from Enterococcus hirae) (Enterococcus hirae, UniProt Q08636+Q08637)
T1 construct: gene ntpA
Test: single-molecule rotation, ADP-dependent backward steps and pause durations
Assay type: biochemical
Settings: ATPγS-driven rotation; 10-100 μM ATPγS, 1-300 μM ADP, no ADP-quenching system, pH 6.5

**Q.** With Nc1ncnc2c1ncn2[C@@H]1O[C@H](COP(=O)(O)OP(=O)(O)O)[C@@H](O)[C@H]1O [ADP] as the compound, how does the “single-molecule rotation, ADP-dependent backward steps and pause durations” value read?
**A.** the addition of ADP causes frequent backward steps during the rotation
